# Measured values: patent US20050171084A1, “Methods of treatment with lxr modulators” (priority 2002, published 2005)
# Experiments:
# Hippocampal neurons = experiment: Neurite outgrowth in hippocampal neurons; format: cell-based, rat; details: HC neurons, 48 hours, SEM in parentheses
# Description: Hippocampal neurons: The hippocampi of gestational day 18 rat embryos were dissected out, incubated in trypsin (0.08%, 30 min at 37° C.) and dissociated mechanically (16). Hippocampal cells were resuspended in neurobasal medium supplemented with B27, anti-oxidants, 1 mM glutamine, 25 μM glutamate, 1 mM pyruvate. For outgrowth assays, cells were plated at a density of 3000 cells/well into 96 well dishes that had previously been coated with poly-D-lysine followed by 10% FCS and cultured for 48 hours.
# (§1) The test compound was solubilised in DMSO and added to culture medium at time of cell plating at a dilution of 1:1000. Vehicle only (1:1000) was added to culture medium of untreated controls. Cells were fixed with 4% paraformaldehyde for 1 hour on ice, washed with PBS and stained using Coomassie. Assays were quantified using a KS300 image analysis system (Imaging Associates, UK). For each cell measured, the length from the edge of the cell to the end of the longest neurite was measured for 100 cells/well for each treatment in triplicate. All data are means and SEM pooled from three independent experiments. Results are expressed as a percentage of the length of neurites of cells treated with vehicle alone.
# Cortical neurons = experiment: Neurite outgrowth in cortical neurons; format: cell-based, rat; details: CR neurons, 24 hours, standard error of triplicate wells in parentheses
# Description: Cortical neurons: Cortex from gestational day 18-20 rat embryos were collected in HBSS on ice. Cells were dissociated as described for hippocampal neurons. Cells were pelted (200 g, 5 mins and resuspended in medium as described for hippocampal cells. Cells were plated at 6000 cells/well and cultured for 24 hours.
# as §1
# [1] = system: NTW8 mouse microglial cells; experiment: Secretion of pro-inflammatory mediators from LPS/IFN-γ stimulated microglia; format: cell-based; details: LPS/INF-γ stimulated microglia cells, 24 hrs
# Description: NTW8 mouse microglial cells were plated into a 96 well plate at a density of 2×10^5 cells/well in DMEM supplemented with 10% FCS, 2 mM glutamine, 10 ng/ml basic fibroblast growth factor (R&D Systems) and N-2 (Gibco). Next day, cell were stimulated for 24 hrs in DMEM containing 10 ng/ml LPS (Sigma) and 20 U/ml IFN-γ (Gibco) in the presence of increasing concentrations of the test compound solubilised in DMSO. Media was removed after 24 hrs and analysed by ELISA for secreted IL-6, TNF-α (R&D systems) and PGE2 (Amersham) or via a Greiss assay for nitric oxide (NO) production. Cell viability was assessed by an MTT assay (Promega). All data are means and SEM pooled from two independent experiments. Results are expressed as a percentage of the LPS\INF-γ stimulated control cells treated with DMSO alone.
smiles,measurement,setting,value
"O=C(O)Cc1cccc(OCCCN(Cc2cccc(C(F)(F)F)c2Cl)CC(c2ccccc2)c2ccccc2)c1 [Example 1, 2-(3-{3-[[2-Chloro-3-(trifluoromethyl)benzyl](2,2-diphenylethyl)amino]propoxy}-phenyl)acetic Acid]","length of longest neurite, percentage of cells treated with vehicle alone",Hippocampal neurons; 0.3 μm test compound,109 (6.25) %
same,"length of longest neurite, percentage of cells treated with vehicle alone",Hippocampal neurons; 1.0 μm test compound,113 (5.05) %
same,"length of longest neurite, percentage of cells treated with vehicle alone",Hippocampal neurons; 3.0 μm test compound,120 (7.75) %
same,"length of longest neurite, percentage of cells treated with vehicle alone",Hippocampal neurons; 10.0 μm test compound,147 (11.8) %
same,"length of longest neurite, percentage of cells treated with vehicle alone",Cortical neurons; 0.3 μm test compound,105 (1.79) %
same,"length of longest neurite, percentage of cells treated with vehicle alone",Cortical neurons; 1.0 μm test compound,110 (2.4) %
same,"length of longest neurite, percentage of cells treated with vehicle alone",Cortical neurons; 3.0 μm test compound,123.6 (6.6) %
same,"length of longest neurite, percentage of cells treated with vehicle alone",Cortical neurons; 10.0 μm test compound,126.23 (2.5) %
same,secretion of IL-6,[1]; ELISA (FIG. 2),inhibited
same,secretion of PGE2,[1]; ELISA (FIG. 2),inhibited
same,secretion of TNF-α,[1]; ELISA (FIG. 2),inhibited
same,NO production,[1]; Greiss assay (FIG. 2),inhibited
